Data as given in patent US9884825B2, “Curcumin analogs and methods of making and using thereof” (Georgia State University Research Foundation, Inc., priority 2012, dated 2018).
Read-outs that look alike come from different tables or passages of the source.

Assays:
[1] = test system: human embryonic kidney 293 cells (Hek); assay: MTT cytotoxicity assay, Hek cells; type: cell-based; details: Hek 293 cells, 48 h incubation
Procedure: (§1) Two cell human cancer cell lines were used in this study: human cervical cancer cells (HeLa) and human embryonic kidney 293 cells (Hek). The cell lines were obtained from ATCC (Rockville, Md., USA). Cell lines were cultured at 37° C. and 5% CO2 in DMEM medium with 10% fetal bovine serum (FBS) and 1% penicillin/streptomycin (all obtained from GibcoBRL, Grand Island, N.Y.). Cells were passaged three times weekly by trypsinisation with 0.25% trypsin/0.02% EDTA solution (Sigma) into 75 cm^2 tissue culture flasks (Nunc, Denamark).
(§2) Both human cervical cancer cells (HeLa) and human embryonic kidney 293 cells (Hek) cell lines were seeded into 96-well plate (2.5×10^4 in 100 μL per well). Testing compounds were dissolved or suspended in DMSO to make 10 mM stock solutions. Addition of compounds was performed after adherent cells reached 40-50% confluence. After incubation for 48 h at 37° C. in humidified atmosphere with 5% CO2, 10 μL of MTT (5 mg/mL in PBS) was added to each well and incubated for another 4 h. The culture medium was then aspirated and 100 μL of DMSO was added to each well. Optical densities at 490 nm were measured by microplate reader (PERKINELMER VICTOR 3V model 1420). All tests were performed in triplicates. Doxorubicin was used as a positive control and the same amount DMSO without compound was used as negative control. IC50 values were obtained from the curve fitting by using Sigma plot10.

[2] = test system: human cervical cancer cells (HeLa); assay: MTT cytotoxicity assay, HeLa cells; type: cell-based; details: for IC50: Homo sapiens; for cytotoxicity against HeLa cells, in words: screening at 50 μM, 20 μM and 2 μM (FIGS. 1-2)
Procedure: as §1, §2

KB cell = assay: Cytotoxicity against KB cell line; type: cell-based; details: Homo sapiens, mean ± spread, unit inferred, read-out: IC50 KB cell (Table 6)
PC3 cell = assay: Cytotoxicity against PC3 cell line; type: cell-based; details: Homo sapiens, PC-3, mean ± spread, unit inferred, read-out: IC50 PC3 cell (Table 6)
DU145 cell = assay: Cytotoxicity against DU145 cell line; type: cell-based; details: Homo sapiens, DU-145, mean ± spread, unit inferred, read-out: IC50 DU145 cell (Table 6)
Molt4 cell = assay: Cytotoxicity against MOLT4 cell line; type: cell-based; details: Homo sapiens, MOLT-4; Table 3, SM compounds
[3] = HeLa cells, MTT assay, 48 h incubation, read-out: IC50 (μM) Hela
[4] = HeLa cells, MTT assay, range or bound stated in text, read-out: IC50 against HeLa cancer cell lines
[5] = HeLa cell, mean ± spread, unit inferred, read-out: IC50 HeLa cell (Table 6)
[6] = HeLa, Table 3, SM compounds, read-out: IC50 (μM) against Hela cell

Row | melting point [°C] | SMILES | IC50 (KB cell) [µM] | IC50 (PC3 cell) [µM] | IC50 (DU145 cell) [µM] | IC50 [2, 5] [µM] | also measured
1 | 214 | Cc1ccc(S(=O)(=O)N2C/C(=C\c3ccc(Br)cc3)C(=O)/C(=C/c3ccc(Br)cc3)C2)cc1 [3a, 3,5-Bis(4-bromobenzylidene)-1-tosylpiperidin-4-one] | – | – | – | – | IC50 [1]: 1.39 µM; IC50 ([1]; Homo sapiens, HEK293, 48 h): 1.24 to 3.54 µM; IC50 [2, 3]: 0.28 µM; IC50 [2, 4]: 0.3 to 1.5 µM; cytotoxicity against HeLa cells, in words ([2]; MTT assay): very good activity
2 | 204 | Cc1ccc(S(=O)(=O)N2C/C(=C\c3ccc(F)cc3)C(=O)/C(=C/c3ccc(F)cc3)C2)cc1 [3j, 3,5-Bis(4-fluorobenzylidene)-1-tosylpiperidin-4-one] | – | – | – | – | IC50 [1]: 1.24 µM; IC50 ([1]; Homo sapiens, HEK293, 48 h): 1.24 to 3.54 µM; IC50 [2, 3]: 0.61 µM; IC50 [2, 4]: 0.3 to 1.5 µM
3 | 237 | O=C1/C(=C/c2ccc(Cl)cc2)CN(S(=O)(=O)c2ccccc2)C/C1=C\c1ccc(Cl)cc1 [4e, 3,5-Bis(4-chlorobenzylidene)-1-(phenylsulfonyl)piperidin-4-one] | – | – | – | – | IC50 [1]: 1.97 µM; IC50 ([1]; Homo sapiens, HEK293, 48 h): 1.24 to 3.54 µM; IC50 [2, 3]: 0.85 µM; IC50 [2, 4]: 0.3 to 1.5 µM; cytotoxicity against HeLa cells, in words ([2]; MTT assay): very good activity
4 | 247 | O=C1/C(=C/c2ccc(Br)cc2)CN(S(=O)(=O)c2ccccc2)C/C1=C\c1ccc(Br)cc1 [4i, 3,5-Bis(4-bromobenzylidene)-1-(phenylsulfonyl)piperidin-4-one] | – | – | – | – | IC50 [2, 3]: 1.44 µM; IC50 [2, 4]: 0.3 to 1.5 µM
5 | – | CCN1C/C(=C\c2ccc(C(C)C)cc2)C(=O)/C(=C/c2ccc(C(C)C)cc2)C1 [6g, 1-Ethyl-3,5-bis(4-isopropylbenzylidene)piperidin-4-one] | – | – | – | – | IC50 [1]: 1.78 µM; IC50 ([1]; Homo sapiens, HEK293, 48 h): 1.24 to 3.54 µM; IC50 [2, 3]: 0.86 µM; IC50 [2, 4]: < 1 µM; cytotoxicity against HeLa cells, in words ([2]; MTT assay): very good activity
6 | 150 | CCCCn1cc(CN2CC(=Cc3ccc(CC)cc3)C(=O)C(=Cc3ccc(CC)cc3)C2)nn1 [12b, 1-((1-Butyl-1H-1,2,3-triazol-4-yl)methyl)-3,5-bis(4-ethylbenzylidene)piperidin-4-one] | – | – | – | – | –
7 | 156 | CCCCCn1cc(CN2CC(=Cc3ccc(CC)cc3)C(=O)C(=Cc3ccc(CC)cc3)C2)nn1 [12c, 3,5-Bis(4-ethylbenzylidene)-1-((1-pentyl-1H-1,2,3-triazol-4-yl)methyl)piperidin-4-one] | – | – | – | – | –
8 | 144 | CCCn1cc(CN2CC(=Cc3ccc(C(C)C)cc3)C(=O)C(=Cc3ccc(C(C)C)cc3)C2)nn1 [13a, 3,5-Bis(4-isopropylbenzylidene)-1-((1-propyl-1H-1,2,3-triazol-4-yl)methyl)piperidin-4-one] | – | – | – | – | –
9 | 145 | CCCCn1cc(CN2CC(=Cc3ccc(C(C)C)cc3)C(=O)C(=Cc3ccc(C(C)C)cc3)C2)nn1 [13b, 1-((1-Butyl-1H-1,2,3-triazol-4-yl)methyl)-3,5-bis(4-isopropylbenzylidene)piperidin-4-one] | – | – | – | – | –
10 | 143 | CCCCCn1cc(CN2CC(=Cc3ccc(C(C)C)cc3)C(=O)C(=Cc3ccc(C(C)C)cc3)C2)nn1 [13c, 3,5-Bis(4-isopropylbenzylidene)-1-((1-pentyl-1H-1,2,3-triazol-4-yl)methyl)piperidin-4-one] | – | – | – | – | –
11 | 182 | CCCn1cc(CN2CC(=Cc3ccc(C(C)(C)C)cc3)C(=O)C(=Cc3ccc(C(C)(C)C)cc3)C2)nn1 [14a, 3,5-Bis(4-tert-butylbenzylidene)-1-((1-propyl-1H-1,2,3-triazol-4-yl)methyl)piperidin-4-one] | – | – | – | – | –
12 | 145 | CCCCn1cc(CN2CC(=Cc3ccc(C(C)(C)C)cc3)C(=O)C(=Cc3ccc(C(C)(C)C)cc3)C2)nn1 [14b, 1-[(1-Butyl-1H-1,2,3-triazol-4-yl)methyl]-3,5-bis(4-tert-butylbenzylidene)piperidin-4-one] | – | – | – | – | –
13 | 146 | CCCCCn1cc(CN2CC(=Cc3ccc(C(C)(C)C)cc3)C(=O)C(=Cc3ccc(C(C)(C)C)cc3)C2)nn1 [14c, 3,5-Bis(4-tert-butylbenzylidene)-1-[(1-pentyl-1H-1,2,3-triazol-4-yl)methyl]piperidin-4-one] | – | – | – | – | –
14 | 133 | CCCc1ccc(C=C2CN(Cc3cn(CCC)nn3)CC(=Cc3ccc(CCC)cc3)C2=O)cc1 [15a, 1-[(1-Propyl-1H-1,2,3-triazol-4-yl)methyl]-3,5-bis(4-propylbenzylidene)piperidin-4-one] | – | – | – | – | –
15 | 134 | CCCCCn1cc(CN2CC(=Cc3ccc(CCC)cc3)C(=O)C(=Cc3ccc(CCC)cc3)C2)nn1 [15c, 1-[(1-Pentyl-1H-1,2,3-triazol-4-yl)methyl]-3,5-bis(4-propylbenzylidene)piperidin-4-one] | – | – | – | – | –
16 | 127 | CCCCc1ccc(C=C2CN(Cc3cn(CCC)nn3)CC(=Cc3ccc(CCCC)cc3)C2=O)cc1 [16a, 3,5-Bis(4-butylbenzylidene)-1-[(1-propyl-1H-1,2,3-triazol-4-yl)methyl]piperidin-4-one] | – | – | – | – | –

Row | melting point [°C] | SMILES | IC50 (KB cell) [µM] | IC50 (PC3 cell) [µM] | IC50 (DU145 cell) [µM] | IC50 [2, 5] [µM] | also measured
17 | 136 | CCCCc1ccc(C=C2CN(Cc3cn(CCCC)nn3)CC(=Cc3ccc(CCCC)cc3)C2=O)cc1 [16b, 1-[(1-Butyl-1H-1,2,3-triazol-4-yl)methyl]-3,5-bis(4-butylbenzylidene)piperidin-4-one] | – | – | – | – | –
18 | 145 | CCCCCn1cc(CN2CC(=Cc3ccc(CCCC)cc3)C(=O)C(=Cc3ccc(CCCC)cc3)C2)nn1 [16c, 3,5-Bis(4-butylbenzylidene)-1-[(1-pentyl-1H-1,2,3-triazol-4-yl)methyl]piperidin-4-one] | – | – | – | – | –
19 | – | COc1cccc2c1C(=O)c1c(O)c3c(c(O)c1C2=O)C[C@@](O)(C(=O)CO)C[C@@H]3O[C@H]1C[C@H](N)[C@H](O)[C@H](C)O1 [Doxorubicin, reference compound] | 0.4 ± 0.11 | 0.23 ± 0.01 | 0.47 ± 0.25 | 0.96 ± 0.27 | IC50 ([1]; Homo sapiens, HEK293, 48 h): 0.95 µM; IC50 [2, 3]: 2.89 µM
20 | – | COc1cc(/C=C2\CC/C(=C\c3ccc(OCCBr)c(OC)c3)C2=O)ccc1OCCBr [SM216] | – | – | – | – | IC50 (Molt4 cell): > 50 µM; IC50 [2, 6]: > 2.5 µM
21 | – | COc1cc(/C=C2\CC/C(=C\c3ccc(OCCN4CCOCC4)c(OC)c3)C2=O)ccc1OCCN1CCOCC1 [SM218] | – | – | – | – | IC50 (Molt4 cell): > 2.5 µM; IC50 [2, 6]: > 2.5 µM
22 | – | CCc1ccc(/C=C2\CN(Cc3cn(CCNc4ccnc5cc(Cl)ccc45)nn3)C/C(=C\c3ccc(CC)cc3)C2=O)cc1 [SR13] | 3.7 ± 0.21 | 3.7 ± 2.1 | 6.5 ± 3 | 5.3 ± 2.8 | –
23 | – | O=C1/C(=C/c2ccc(Br)cc2)CN(Cc2cn(CCNc3ccnc4cc(Cl)ccc34)nn2)C/C1=C\c1ccc(Br)cc1 [SR14] | 1.2 ± 0.32 | 1.5 ± 0.24 | 6.6 ± 4.6 | 2.7 ± 1.3 | –
24 | – | O=C1/C(=C/c2ccc(Cl)cc2)CN(Cc2cn(CCNc3ccnc4cc(Cl)ccc34)nn2)C/C1=C\c1ccc(Cl)cc1 [SR15] | 3 ± 0.31 | 3.1 ± 1.8 | 3.1 ± 1.3 | 2.1 ± 0.35 | –
25 | – | O=C1/C(=C/c2ccc(F)cc2)CN(Cc2cn(CCNc3ccnc4cc(Cl)ccc34)nn2)C/C1=C\c1ccc(F)cc1 [SR16] | 2.6 ± 0.41 | 2 ± 0.05 | 3.7 ± 2.4 | 2.2 ± 0.93 | –
26 | – | O=C1/C(=C/c2cccc(Br)c2)CN(Cc2cn(CCNc3ccnc4cc(Cl)ccc34)nn2)C/C1=C\c1cccc(Br)c1 [SR17] | 4.3 ± 2.4 | 2.8 ± 0.8 | 9.6 ± 7.3 | 2.5 ± 1.2 | –
27 | – | Cc1ccc(/C=C2\CN(Cc3cn(CCCNc4ccnc5cc(Cl)ccc45)nn3)C/C(=C\c3ccc(C)cc3)C2=O)cc1 [SR34] | 4.7 ± 1.1 | 2.7 ± 0.8 | 4 ± 0.49 | 2.8 ± 0.93 | –
28 | – | O=C1/C(=C/c2ccc(Br)cc2)CN(Cc2cn(CCCNc3ccnc4cc(Cl)ccc34)nn2)C/C1=C\c1ccc(Br)cc1 [SR36] | 1.5 ± 0.3 | 1.7 ± 0.24 | 1.9 ± 0.59 | 2 ± 1.2 | –
29 | – | COc1ccc(/C=C2\CN(Cc3cn(CCCNc4ccnc5cc(Cl)ccc45)nn3)C/C(=C\c3ccc(OC)cc3)C2=O)cc1 [SR37] | 4.7 ± 0.87 | 11 ± 2.7 | 6.7 ± 1.9 | 5 ± 2.2 | –
30 | – | COc1ccc(/C=C2\CN(Cc3cn(CCCNc4ccnc5cc(Cl)ccc45)nn3)C/C(=C\c3ccc(OC)c(OC)c3)C2=O)cc1OC [SR38] | 2.1 ± 0.05 | 2.6 ± 0.4 | 6.7 ± 4.4 | 2.5 ± 1.3 | –
31 | – | O=C1/C(=C/c2ccc(F)cc2)CN(Cc2cn(CCCNc3ccnc4cc(Cl)ccc34)nn2)C/C1=C\c1ccc(F)cc1 [SR39] | 2.6 ± 0.69 | 3 ± 0.75 | 5.3 ± 2.8 | 2.6 ± 1.4 | –
32 | – | O=C1/C(=C/c2ccc(Cl)cc2)CN(Cc2cn(CCCNc3ccnc4cc(Cl)ccc34)nn2)C/C1=C\c1ccc(Cl)cc1 [SR40] | 1.8 ± 0.29 | 1.8 ± 0.68 | 1.9 ± 0.62 | 1.8 ± 0.65 | –
